Patent publication US20160083397A1, “PARTHENOLIDE DERIVATIVES AND THEIR MODULATION OF PROCESSES CONTROLLED BY REGULATED TRANSLATION” (THE BOARD OF TRUSTEES OF THE UNIVERSITY OF ARKANSAS, priority 2013, published 2016)

Columns and labels:
MDA-MB-468 = settings: for GI50: MDA-MB-468, Breast Cancer
HOP-62 = settings: for GI50: HOP-62, Lung Cancer
SK-OV-3 = settings: for GI50: SK-OV-3, Ovarian Cancer
NCI-H460 = settings: for GI50: NCI-H460, Lung Cancer
M14 = settings: for GI50: M14, Melanoma
NCI/ADR-RES = settings: for GI50: NCI/ADR-RES, Ovarian Cancer
OVCAR-5 = settings: for GI50: OVCAR-5, Ovarian Cancer
HT29 = settings: for GI50: HT29, Colon Cancer
MCF7 = settings: for GI50: MCF7, Breast Cancer
UACC-257 = settings: for GI50: UACC-257, Melanoma
PC-3 = settings: for GI50: PC-3, Prostate Cancer
OVCAR-3 = settings: for GI50: OVCAR-3, Ovarian Cancer
UO-31 = settings: for GI50: UO-31, Renal Cancer
SK-MEL-28 = settings: for GI50: SK-MEL-28, Melanoma
A498 = settings: for GI50: A498, Renal Cancer
BT-549 = settings: for GI50: BT-549, Breast Cancer
MOLT-4 = settings: for GI50: MOLT-4, Leukemia
NCI-H226 = settings: for GI50: NCI-H226, Lung Cancer
OVCAR-4 = settings: for GI50: OVCAR-4, Ovarian Cancer
HCT-116 = settings: for GI50: HCT-116, Colon Cancer
U251 = settings: for GI50: U251, CNS Cancer
SN12C = settings: for GI50: SN12C, Renal Cancer
NCI-H23 = settings: for GI50: NCI-H23, Lung Cancer

Substance: 13-(2-iodoimidazole)parthenolide [PNR-5-65]
- CC50 (MDA-MB-468): 60.4 µM
- GI50 (MDA-MB-468): 11.1 µM
- CC50 (HOP-62): > 100 µM
- GI50 (HOP-62): 47.4 µM
- CC50 (SK-OV-3): > 100 µM
- GI50 (SK-OV-3): 47.3 µM
- CC50 (NCI-H460): > 100 µM
- GI50 (NCI-H460): 30.1 µM
- CC50 (M14): 65.6 µM
- GI50 (M14): 16.5 µM
- CC50 (NCI/ADR-RES): > 100 µM
- GI50 (NCI/ADR-RES): 31.2 µM
- CC50 (OVCAR-5): 52.5 µM
- GI50 (OVCAR-5): 13.7 µM
- CC50 (HT29): 61.5 µM
- GI50 (HT29): 17.6 µM
- CC50 (MCF7): > 100 µM
- GI50 (MCF7): 9.79 µM
- CC50 (UACC-257): 53.9 µM
- GI50 (UACC-257): 12 µM
- CC50 (PC-3): > 100 µM
- GI50 (PC-3): 23.1 µM
- CC50 (OVCAR-3): 50.8 µM
- GI50 (OVCAR-3): 6.85 µM
- CC50 (UO-31): 50 µM
- GI50 (UO-31): 10.8 µM
- CC50 (SK-MEL-28): 73 µM
- GI50 (SK-MEL-28): 16.1 µM
- CC50 (A498): > 100 µM
- GI50 (A498): 45.2 µM
- CC50 (BT-549): 55.3 µM
- GI50 (BT-549): 15.9 µM
- CC50 (MOLT-4): 97.9 µM
- GI50 (MOLT-4): 19.6 µM
- CC50 (NCI-H226): 62.3 µM
- GI50 (NCI-H226): 15.4 µM
- CC50 (OVCAR-4): 60 µM
- GI50 (OVCAR-4): 13.2 µM
- CC50 (HCT-116): 49 µM
- GI50 (HCT-116): 11.8 µM
- CC50 (U251): > 100 µM
- GI50 (U251): 36.7 µM
- CC50 (SN12C): 84.1 µM
- GI50 (SN12C): 17.7 µM
- CC50 (NCI-H23): > 100 µM
- GI50 (NCI-H23): 23.7 µM

Substance: (E)-13-(3-thiopheno)parthenolide [PNR-5-53]
- CC50 (MDA-MB-468): > 100 µM
- GI50 (MDA-MB-468): 17.7 µM
- CC50 (HOP-62): > 100 µM
- GI50 (HOP-62): 35.8 µM
- CC50 (SK-OV-3): > 100 µM
- GI50 (SK-OV-3): 44.9 µM
- CC50 (NCI-H460): > 100 µM
- GI50 (NCI-H460): 29.3 µM
- CC50 (M14): > 100 µM
- GI50 (M14): 20.5 µM
- CC50 (NCI/ADR-RES): > 100 µM
- GI50 (NCI/ADR-RES): 23.6 µM
- CC50 (OVCAR-5): > 100 µM
- GI50 (OVCAR-5): 48.1 µM
- CC50 (HT29): > 100 µM
- GI50 (HT29): 27 µM
- CC50 (MCF7): > 100 µM
- GI50 (MCF7): 20 µM
- CC50 (UACC-257): > 100 µM
- GI50 (UACC-257): 16.6 µM
- CC50 (PC-3): > 100 µM
- GI50 (PC-3): 22.7 µM
- CC50 (OVCAR-3): > 100 µM
- GI50 (OVCAR-3): 20.5 µM
- CC50 (UO-31): > 100 µM
- GI50 (UO-31): 27.3 µM
- CC50 (SK-MEL-28): > 100 µM
- GI50 (SK-MEL-28): 29.4 µM
- CC50 (A498): > 100 µM
- GI50 (A498): 17.5 µM
- CC50 (BT-549): 88.2 µM
- GI50 (BT-549): 20.1 µM
- CC50 (MOLT-4): > 100 µM
- GI50 (MOLT-4): 25.7 µM
- CC50 (NCI-H226): > 100 µM
- GI50 (NCI-H226): 30.2 µM
- CC50 (OVCAR-4): > 100 µM
- GI50 (OVCAR-4): 24.3 µM
- CC50 (HCT-116): > 100 µM
- GI50 (HCT-116): 28.3 µM
- CC50 (U251): > 100 µM
- GI50 (U251): 21.7 µM
- CC50 (SN12C): > 100 µM
- GI50 (SN12C): 25.8 µM
- CC50 (NCI-H23): > 100 µM
- GI50 (NCI-H23): 23 µM
